# Experimental data as given in ChEMBL document CHEMBL1201862, “PubChem BioAssay data set” (2004).
#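 Compound exposure: 48 hours, 5 concentrations, 96-well plates. GI50 = concentration required for 50% inhibition of growth.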 Activity calls are given as the source filed them. No stated cut-off is given here; in the data, active = GI50 up to about 1.1 µM and inactive = higher.
# What was measured:
# Assay in all cases: growth of human tumour cells (NCI), 48 h
# [1] = tested on: 786-0
# [2] = tested on: A498
# [3] = tested on: A549
# [4] = tested on: ACHN
# [5] = tested on: BT-549
# [6] = tested on: CAKI-1
# [7] = tested on: CCRF-CEM
# [8] = tested on: COLO 205
# [9] = tested on: DU-145
# [10] = tested on: EKVX
# [11] = tested on: HCC 2998
# [12] = tested on: HCT-116
# [13] = tested on: HCT-15
# [14] = tested on: HL-60
# [15] = tested on: HOP-62
# [16] = tested on: HOP-92
# [17] = tested on: HT-29
# [18] = tested on: Hs-578T
# [19] = tested on: IGROV-1
# [20] = tested on: K562
# [21] = tested on: KM12
# [22] = tested on: LOX IMVI
# [23] = tested on: M14
# [24] = tested on: MCF7
# [25] = tested on: MDA-MB-231
# [26] = tested on: MDA-MB-435
# [27] = tested on: MDA-N
# [28] = tested on: MOLT-4
# [29] = tested on: Malme-3M
# [30] = tested on: NCI-H226
# [31] = tested on: NCI-H23
# [32] = tested on: NCI-H460
# [33] = tested on: NCI-H522
# [34] = tested on: NCI/ADR-RES
# [35] = tested on: OVCAR-3
# [36] = tested on: OVCAR-4
# [37] = tested on: OVCAR-5
# [38] = tested on: OVCAR-8
# [39] = tested on: PC-3
# [40] = tested on: RXF 393
# [41] = tested on: SF-268
# [42] = tested on: SF-295
# [43] = tested on: SF-539
# [44] = tested on: SK-MEL-28
# [45] = tested on: SK-MEL-2
# [46] = tested on: SK-MEL-5
# [47] = tested on: SK-OV-3
# [48] = tested on: SN12C
# [49] = tested on: SNB-19
# [50] = tested on: SR
# [51] = tested on: T47D
# [52] = tested on: TK-10
# [53] = tested on: U-251
# [54] = tested on: UACC-257
# [55] = tested on: UACC-62
# [56] = tested on: UO-31
# [57] = tested on: RPMI-8226
# [58] = tested on: SNB-75
# [59] = tested on: SW-620
structure (smiles),measurement,setting,value
O=C1C/C(=C\O)C(=O)c2ccccc2N1,GI50,[1],> 100 µM (inactive)
same,GI50,[2],> 100 µM (inactive)
same,GI50,[3],> 100 µM (inactive)
same,GI50,[4],> 100 µM (inactive)
same,GI50,[5],> 100 µM (inactive)
same,GI50,[6],> 100 µM (inactive)
same,GI50,[7],> 100 µM (inactive)
same,GI50,[8],> 100 µM (inactive)
same,GI50,[9],> 100 µM (inactive)
same,GI50,[10],> 100 µM (inactive)
same,GI50,[11],> 100 µM (inactive)
same,GI50,[12],> 100 µM (inactive)
same,GI50,[13],> 100 µM
same,GI50,[14],> 100 µM (inactive)
same,GI50,[15],> 100 µM (inactive)
same,GI50,[16],> 100 µM (inactive)
same,GI50,[17],> 100 µM (inactive)
same,GI50,[18],> 100 µM (inactive)
same,GI50,[19],> 100 µM (inactive)
same,GI50,[20],> 100 µM (inactive)
same,GI50,[21],> 100 µM (inactive)
same,GI50,[22],> 100 µM (inactive)
same,GI50,[23],> 100 µM (inactive)
same,GI50,[24],> 100 µM (inactive)
same,GI50,[25],> 100 µM (inactive)
same,GI50,[26],> 100 µM (inactive)
same,GI50,[27],> 100 µM (inactive)
same,GI50,[28],> 100 µM (inactive)
same,GI50,[29],> 100 µM (inactive)
same,GI50,[30],> 100 µM (inactive)
same,GI50,[31],> 100 µM (inactive)
same,GI50,[32],> 100 µM (inactive)
same,GI50,[33],> 100 µM (inactive)
same,GI50,[34],> 100 µM (inactive)
same,GI50,[35],> 100 µM (inactive)
same,GI50,[36],> 100 µM (inactive)
same,GI50,[37],> 100 µM (inactive)
same,GI50,[38],> 100 µM (inactive)
same,GI50,[39],> 100 µM (inactive)
same,GI50,[40],> 100 µM (inactive)
same,GI50,[41],> 100 µM (inactive)
same,GI50,[42],> 100 µM (inactive)
same,GI50,[43],> 100 µM (inactive)
same,GI50,[44],> 100 µM (inactive)
same,GI50,[45],> 100 µM (inactive)
same,GI50,[46],> 100 µM (inactive)
same,GI50,[47],> 100 µM (inactive)
same,GI50,[48],> 100 µM (inactive)
same,GI50,[49],> 100 µM (inactive)
same,GI50,[50],> 100 µM (inactive)
same,GI50,[51],61.8 µM (inactive)
same,GI50,[52],> 100 µM (inactive)
same,GI50,[53],> 100 µM (inactive)
same,GI50,[54],> 100 µM (inactive)
same,GI50,[55],> 100 µM (inactive)
same,GI50,[56],> 100 µM (inactive)
COc1cc(/C=C2\N=C(c3ccccc3)N(/N=C/c3cc4cc(C)ccc4nc3Cl)C2=O)ccc1O,GI50,[1],37.6 µM (inactive)
same,GI50,[2],16.6 µM (inactive)
same,GI50,[3],37.5 µM (inactive)
same,GI50,[4],36.6 µM (inactive)
same,GI50,[5],63.8 µM (inactive)
same,GI50,[6],78 µM (inactive)
same,GI50,[7],16.2 µM (inactive)
same,GI50,[8],37.2 µM (inactive)
same,GI50,[9],65.6 µM (inactive)
same,GI50,[10],37.2 µM (inactive)
same,GI50,[11],35.5 µM (inactive)
same,GI50,[12],20.4 µM (inactive)
same,GI50,[13],40.1 µM
same,GI50,[14],24.9 µM (inactive)
same,GI50,[15],49.3 µM (inactive)
same,GI50,[16],31.6 µM (inactive)
same,GI50,[17],33.8 µM (inactive)
same,GI50,[18],40.6 µM (inactive)
same,GI50,[19],30.1 µM (inactive)
same,GI50,[20],45.8 µM (inactive)
same,GI50,[21],37.2 µM (inactive)
same,GI50,[22],37 µM (inactive)
same,GI50,[23],42.1 µM (inactive)
same,GI50,[24],25.1 µM (inactive)
same,GI50,[25],27.8 µM (inactive)
same,GI50,[26],17.3 µM (inactive)
same,GI50,[27],15.9 µM (inactive)
same,GI50,[28],23.4 µM (inactive)
same,GI50,[32],30.5 µM (inactive)
same,GI50,[34],31.6 µM (inactive)
same,GI50,[35],38.9 µM (inactive)
same,GI50,[36],43.8 µM (inactive)
same,GI50,[37],> 100 µM (inactive)
same,GI50,[38],49.7 µM (inactive)
same,GI50,[39],20 µM (inactive)
same,GI50,[57],31.6 µM (inactive)
same,GI50,[40],34 µM (inactive)
same,GI50,[41],39.2 µM (inactive)
same,GI50,[42],48.1 µM (inactive)
same,GI50,[43],35.2 µM (inactive)
same,GI50,[44],> 100 µM (inactive)
same,GI50,[45],12.9 µM (inactive)
same,GI50,[46],37.2 µM (inactive)
same,GI50,[47],88.1 µM (inactive)
same,GI50,[48],30 µM (inactive)
same,GI50,[49],67.8 µM (inactive)
same,GI50,[58],32.7 µM (inactive)
same,GI50,[50],18.9 µM (inactive)
same,GI50,[59],39.2 µM (inactive)
same,GI50,[51],56.1 µM (inactive)
same,GI50,[52],43.2 µM (inactive)
same,GI50,[53],35.7 µM (inactive)
same,GI50,[54],49.8 µM (inactive)
same,GI50,[55],37.7 µM (inactive)
same,GI50,[56],32.5 µM (inactive)
O=c1c2c([N+](=O)[O-])cccc2nc2[nH]c3ccccc3n12,GI50,[1],29.1 µM (inactive)
same,GI50,[2],26.6 µM (inactive)
same,GI50,[3],40.3 µM (inactive)
same,GI50,[4],13.9 µM (inactive)
same,GI50,[5],20.5 µM (inactive)
same,GI50,[6],14.6 µM (inactive)
same,GI50,[7],> 75 µM (inactive)
same,GI50,[8],40.7 µM (inactive)
same,GI50,[9],34 µM (inactive)
same,GI50,[10],30.2 µM (inactive)
same,GI50,[11],19.3 µM (inactive)
same,GI50,[12],34.1 µM (inactive)
same,GI50,[13],53.6 µM
same,GI50,[14],> 75 µM (inactive)
same,GI50,[15],70.8 µM (inactive)
same,GI50,[16],19.8 µM (inactive)
same,GI50,[17],63.2 µM (inactive)
same,GI50,[18],26.5 µM (inactive)
same,GI50,[19],11.9 µM (inactive)
same,GI50,[20],> 75 µM (inactive)
same,GI50,[21],32.4 µM (inactive)
same,GI50,[22],32.8 µM (inactive)
same,GI50,[23],> 75 µM (inactive)
same,GI50,[24],20.4 µM (inactive)
same,GI50,[25],14.7 µM (inactive)
same,GI50,[26],> 75 µM (inactive)
same,GI50,[27],> 75 µM (inactive)
same,GI50,[28],> 75 µM (inactive)
same,GI50,[29],46 µM (inactive)
same,GI50,[30],22.3 µM (inactive)
same,GI50,[31],32.9 µM (inactive)
same,GI50,[32],20.9 µM (inactive)
same,GI50,[34],26.4 µM (inactive)
same,GI50,[35],20.7 µM (inactive)
same,GI50,[36],11.6 µM (inactive)
same,GI50,[37],> 75 µM (inactive)
same,GI50,[38],14.5 µM (inactive)
same,GI50,[39],57.8 µM (inactive)
same,GI50,[57],64.1 µM (inactive)
same,GI50,[40],13.8 µM (inactive)
same,GI50,[41],18.7 µM (inactive)
same,GI50,[42],23.1 µM (inactive)
same,GI50,[43],13.3 µM (inactive)
same,GI50,[44],> 75 µM (inactive)
same,GI50,[45],14.4 µM (inactive)
same,GI50,[46],35 µM (inactive)
same,GI50,[47],13.3 µM (inactive)
same,GI50,[48],25.6 µM (inactive)
same,GI50,[49],30.9 µM (inactive)
same,GI50,[50],54.2 µM (inactive)
same,GI50,[59],> 75 µM (inactive)
same,GI50,[51],15 µM (inactive)
same,GI50,[52],18.7 µM (inactive)
same,GI50,[53],20.2 µM (inactive)
same,GI50,[54],> 75 µM (inactive)
same,GI50,[55],19.5 µM (inactive)
